# According to PMC11429243, “The Fluorinated NAD Precursors Enhance FK866 Cytotoxicity by Activating SARM1 in Glioblastoma Cells” (Biology, 2024):
# Key:
# NRK2 = target: T1, NRK2 (Homo sapiens, UniProt Q9NPI5); assay: HPLC of conversion of NR to NMN by purified enzyme; type: biochemical
# T1 construct: gene NMRK2; recombinant human NRK2 (CDS of NM_170678.2) in pET22b, E. coli Rosetta (DE3)
# NRK1 = target: T2, NRK1 (Homo sapiens, UniProt Q9NWW6); assay: HPLC of conversion of NR to NMN by purified enzyme; type: biochemical
# T2 construct: gene NMRK1; recombinant human NRK1 (CDS of NM_017881.3) in pET22b, E. coli Rosetta (DE3)
# T2 sequence (Q9NWW6 1-199): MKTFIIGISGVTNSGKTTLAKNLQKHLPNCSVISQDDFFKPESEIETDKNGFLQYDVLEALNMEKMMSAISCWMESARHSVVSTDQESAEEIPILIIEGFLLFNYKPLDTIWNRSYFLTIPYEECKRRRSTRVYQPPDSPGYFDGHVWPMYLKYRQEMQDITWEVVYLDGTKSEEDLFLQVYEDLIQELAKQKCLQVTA
# T1 sequence (Q9NPI5 whole entry): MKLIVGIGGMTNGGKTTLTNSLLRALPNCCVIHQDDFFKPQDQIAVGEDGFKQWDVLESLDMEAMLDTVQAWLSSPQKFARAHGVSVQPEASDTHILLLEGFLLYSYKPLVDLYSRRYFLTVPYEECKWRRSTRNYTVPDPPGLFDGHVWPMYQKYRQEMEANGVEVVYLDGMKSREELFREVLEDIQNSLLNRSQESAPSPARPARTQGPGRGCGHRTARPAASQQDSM
structure (smiles),measurement,setting,value
"NC(=O)c1ccc[n+]([C@@H]2O[C@H](CO)[C@@H](O)[C@H]2O)c1 [NR, nicotinamide riboside]",HPLC of conversion of NR to NMN by purified enzyme,NRK2,17.28 pmol NR/µg/h
same,HPLC of conversion of NR to NMN by purified enzyme,NRK1,12.03 pmol NR/µg/h
